# Results from ChEMBL document CHEMBL1201862, “PubChem BioAssay data set” (2004).
# “And” between values parts separate entries of the source, which are not always exact repeats. Equal entries are not always repeated. The source made the active and inactive calls. Cut-off read from the data, not from the text of the source, for most assays here: actives have a measured EC50 and inactives only a lower limit.
# Legend:
# [1] = molecular target: T1, Heat shock factor protein 1 (Mus musculus, UniProt P38532); test: enhancement of HSF1-driven luciferase signal – cell-based, NIH3T3, luminescence, dose retest, confirmation (AID 435004); assay type: functional;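 note: stress induced by proteasome inhibitor MG132 added 30 min after compound; luciferase reporter driven by HSF1 response element in NIH3T3 cells; actives raise luminescence as potentiators of the MG132 stress response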
# T1 sequence (P38532 whole entry): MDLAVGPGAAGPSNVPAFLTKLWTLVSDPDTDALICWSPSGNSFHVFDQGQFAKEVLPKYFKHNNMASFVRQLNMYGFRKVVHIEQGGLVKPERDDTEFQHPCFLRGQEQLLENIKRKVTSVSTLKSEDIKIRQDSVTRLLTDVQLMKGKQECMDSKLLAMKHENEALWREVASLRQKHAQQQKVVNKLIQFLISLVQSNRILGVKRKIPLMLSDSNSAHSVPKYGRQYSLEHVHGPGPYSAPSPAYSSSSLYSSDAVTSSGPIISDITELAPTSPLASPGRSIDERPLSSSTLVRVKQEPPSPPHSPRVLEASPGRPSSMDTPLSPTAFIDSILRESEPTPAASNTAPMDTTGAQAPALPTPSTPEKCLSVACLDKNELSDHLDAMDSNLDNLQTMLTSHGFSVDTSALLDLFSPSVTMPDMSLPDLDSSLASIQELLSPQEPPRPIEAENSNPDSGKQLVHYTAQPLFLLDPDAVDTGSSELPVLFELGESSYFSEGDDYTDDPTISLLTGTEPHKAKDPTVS
# Cytochrome P450 2D6 = Cytochrome P450 2D6 (Homo sapiens, UniProt P10635);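 note: CYP2D6 member of a cytochrome P450 panel assay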
# Cytochrome P450 2D6, sequence (P10635 whole entry): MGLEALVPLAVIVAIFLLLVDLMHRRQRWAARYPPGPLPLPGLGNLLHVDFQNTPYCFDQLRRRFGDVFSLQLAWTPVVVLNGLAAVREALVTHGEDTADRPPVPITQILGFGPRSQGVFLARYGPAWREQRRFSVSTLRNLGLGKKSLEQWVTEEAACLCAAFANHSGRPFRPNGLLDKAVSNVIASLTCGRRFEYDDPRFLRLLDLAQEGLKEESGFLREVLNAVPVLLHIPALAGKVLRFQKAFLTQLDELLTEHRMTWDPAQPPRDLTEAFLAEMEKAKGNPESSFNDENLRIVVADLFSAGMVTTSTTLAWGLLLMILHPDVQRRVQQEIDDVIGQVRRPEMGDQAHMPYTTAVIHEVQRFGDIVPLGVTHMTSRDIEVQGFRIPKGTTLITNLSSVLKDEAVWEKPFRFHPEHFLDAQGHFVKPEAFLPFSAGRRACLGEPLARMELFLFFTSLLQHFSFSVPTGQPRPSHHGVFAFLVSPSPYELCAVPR
# [2] = luciferase reporter signal suppression in cells – H4 neuroglioma cells, luminescence, dose response (AID 1990); assay type: functional, cell-based
# [3] = Luminescence Cell-Based Dose Response HTS to Identify Inhibitors of 5'UTR Stem-Loop Driven Prion Protein mRNA Translation in H4 Neuroglioblastoma Cells. [Related pubchem assays: 1827 (Project Summary), 1813 (Primary HTS)]; assay type: functional
# [4] = alpha-synuclein stem-loop luciferase translation blockers – H4 neuroglioma cells, luminescence, confirmation (AID 1988); assay type: functional, cell-based
# Cytochrome P450 2C9 = Cytochrome P450 2C9 (Homo sapiens, UniProt P11712)
# Cytochrome P450 2C9, sequence (P11712 whole entry): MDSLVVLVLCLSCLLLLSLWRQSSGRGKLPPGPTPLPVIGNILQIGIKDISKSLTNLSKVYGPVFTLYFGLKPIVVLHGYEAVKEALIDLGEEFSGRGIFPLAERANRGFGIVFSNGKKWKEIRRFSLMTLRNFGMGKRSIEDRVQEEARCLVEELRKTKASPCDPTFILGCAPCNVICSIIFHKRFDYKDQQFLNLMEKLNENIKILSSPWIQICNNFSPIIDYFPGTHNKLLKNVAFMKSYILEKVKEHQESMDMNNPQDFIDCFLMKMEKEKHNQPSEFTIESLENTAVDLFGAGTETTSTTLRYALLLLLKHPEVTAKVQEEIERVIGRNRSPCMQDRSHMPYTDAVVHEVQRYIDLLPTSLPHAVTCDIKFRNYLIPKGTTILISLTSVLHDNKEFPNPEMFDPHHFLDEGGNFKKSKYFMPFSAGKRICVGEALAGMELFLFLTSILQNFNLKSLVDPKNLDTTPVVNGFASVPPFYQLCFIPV
# [5] = viability of uninfected HEp-2 cells – cell-based, HTS, cytotoxicity control for RSV inhibitor project, dose response (AID 2410); assay type: functional; details: human respiratory syncytial virus
# [6] = molecular target: T1, Heat shock factor protein 1; test: decrease of HSF1-responsive luciferase luminescence – cell-based, NIH3T3, dose retest, confirmation (AID 2382); assay type: functional;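 note: NIH3T3 fibroblasts with HSF1-driven luciferase reporter stressed by proteasome inhibitor MG132; luminescence from HSF1-driven luciferase expression after 8 hours of MG132 stress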
# [7] = system: Streptococcus sp. 'group A'; test: Streptococcus pyogenes SK(-)GAS viability under kanamycin – luminescence, BacTiterGlo, confirmation, counter-screen for streptokinase expression inhibitor project, dose response (AID 1900); assay type: functional, organism-based
# Streptokinase A = molecular target: T2, Streptokinase A (Streptococcus pyogenes serotype M1, UniProt P10520); test: viability-normalized secreted streptokinase activity reduction – plasminogen activation absorbance, OD405, dose response (AID 1914); assay type: functional, Streptococcus pyogenes M1 GAS;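 note: secreted streptokinase activity via plasminogen activation per viability signal from cell pellet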
# T2 sequence (P10520 whole entry): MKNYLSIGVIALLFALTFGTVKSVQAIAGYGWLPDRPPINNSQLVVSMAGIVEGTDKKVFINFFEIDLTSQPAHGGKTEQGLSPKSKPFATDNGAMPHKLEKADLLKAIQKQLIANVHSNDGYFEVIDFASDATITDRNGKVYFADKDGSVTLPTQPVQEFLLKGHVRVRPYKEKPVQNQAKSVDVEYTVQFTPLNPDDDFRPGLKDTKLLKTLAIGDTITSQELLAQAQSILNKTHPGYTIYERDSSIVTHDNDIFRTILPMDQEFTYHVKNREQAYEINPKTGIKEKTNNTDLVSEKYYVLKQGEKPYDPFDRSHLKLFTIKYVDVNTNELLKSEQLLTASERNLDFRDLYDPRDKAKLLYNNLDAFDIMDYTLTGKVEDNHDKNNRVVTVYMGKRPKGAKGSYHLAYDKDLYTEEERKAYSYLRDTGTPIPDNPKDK
# Streptococcus = test: GAS UMAA2166 growth inhibition – luminescence, BacTiterGlo, counter-screen for streptokinase expression inhibitor project, dose response (AID 1915); assay type: functional, organism-based;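 note: potency for reduction of bacterial viability or growth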
# Cytochrome P450 3A4 = Cytochrome P450 3A4 (Homo sapiens, UniProt P08684);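 note: CYP3A4 tested as one member of a cytochrome P450 panel screen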
# Cytochrome P450 3A4, sequence (P08684 whole entry): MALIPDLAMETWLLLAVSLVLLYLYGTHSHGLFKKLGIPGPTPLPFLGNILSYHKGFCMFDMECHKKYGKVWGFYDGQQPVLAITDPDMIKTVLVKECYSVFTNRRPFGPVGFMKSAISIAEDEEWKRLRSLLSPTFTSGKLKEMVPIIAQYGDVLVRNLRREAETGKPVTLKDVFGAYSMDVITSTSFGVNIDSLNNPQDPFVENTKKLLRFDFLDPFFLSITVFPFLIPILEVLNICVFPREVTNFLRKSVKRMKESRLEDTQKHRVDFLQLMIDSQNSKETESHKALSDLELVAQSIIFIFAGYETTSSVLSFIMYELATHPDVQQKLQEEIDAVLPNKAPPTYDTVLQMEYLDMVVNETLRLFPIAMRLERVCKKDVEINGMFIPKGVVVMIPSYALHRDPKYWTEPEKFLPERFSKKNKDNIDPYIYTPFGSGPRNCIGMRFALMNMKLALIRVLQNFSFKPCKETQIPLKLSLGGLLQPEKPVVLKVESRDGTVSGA
# [8] = Trypanosoma cruzi growth suppression in host cells – NIH3T3 host cells, beta-gal luminescence, confirmation (AID 2044); assay type: functional, cell-based;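 note: intracellular parasites grown in NIH/3T3 mouse fibroblasts as host cells; luminescent beta-galactosidase reporter signal from transgenic T. cruzi replicating inside host cells; inhibitors lower the luminescence signal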
# [9] = NIH3T3 cell viability loss – ATP luminescence, mouse fibroblasts, counter-screen, dose response (AID 2010); assay type: functional, cell-based;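 note: cells exposed to compound for about 90 hours before reading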
structure (smiles),measurement,setting,value
Cc1cc(/C=C(/C#N)c2cccc(Cl)c2)c(C)n1C,EC50,[1],> 260 µM (inactive)
Cc1ccc(OCC(=O)N2CCN(c3ccc([N+](=O)[O-])c(N4CCOCC4)c3)CC2)cc1,AC50,Cytochrome P450 2D6,12.6 µM (inconclusive)
COc1ccc(NC(=O)C(=O)NCC(c2ccco2)N2CCc3ccccc32)cc1 (stereo unspecified),EC50,[2],104 µM (active)
same,EC50,[3],0.127 µM (active)
same,EC50,[4],0.11 µM (active)
CCCC[C@@H]1C[C@H]1C(NC(=O)Cc1ccccc1)c1ccc(Cl)cc1 (stereo partly specified),AC50,Cytochrome P450 2D6,7.94 µM (inconclusive)
same,AC50,Cytochrome P450 2C9,1.26 µM (inconclusive)
Cc1c(C)c2ccc(OS(C)(=O)=O)c(C)c2oc1=O,CC50,[5],> 50 µM (active)
CCCCNCCOCCOc1ccccc1-c1ccccc1,EC50,[6],> 195 µM (not active)
CC(C)[C@H](N)c1nnc(SC/C=C/c2ccccc2)o1,AC50,Cytochrome P450 2D6,35.5 µM (inconclusive)
same,AC50,Cytochrome P450 2C9,0.0562 µM (inconclusive)
Cc1ccc(C(=O)Nc2ccc3c(c2)C(=O)NC3=O)cc1,EC50,[6],> 195 µM (not active)
CC(=O)Nc1ccc(-c2nnn(CC(=O)Nc3ccc4c(c3)OCO4)n2)cc1Cl,EC50,[6],> 195 µM (not active)
COc1cccc(Nc2nc(N)nc(C(F)(F)F)n2)c1,CC50,[5],20.4 µM (active)
O=[N+]([O-])c1cc([N+](=O)[O-])c(N2CCOCC2)cc1NCc1ccccc1,EC50,[1],> 260 µM (inactive)
CC(=O)Nc1nc(NC(=O)/C=C/c2ccccc2)n(-c2ccccc2)n1,EC50,[2],14.2 µM (active)
same,EC50,[7],2.47 µM (active)
same,EC50,[3],13.7 µM (active)
same,EC50,[4],15.7 µM (active)
same,EC50,Streptokinase A,> 150 µM (not active)
same,EC50,Streptococcus,33.9 µM (active)
O=C1CN(C(=O)COc2c(Cl)cccc2Cl)c2ccccc2N1,EC50,[6],> 195 µM (not active)
CCOC(=O)c1cnc2ccc(C(=O)OC)cc2c1NCCCN1CCOCC1,EC50,[6],> 195 µM (not active)
COc1cccc(NC(=O)CCSc2nnc3scc(-c4ccccc4)n23)c1,EC50,[6],> 195 µM (not active)
CCc1ccc(-c2nc(C[S+]([O-])CC(=O)NCc3cccnc3)c(C)o2)cc1 (stereo unspecified),EC50,[6],> 195 µM (not active)
Cc1noc(C)c1C(=O)N1CCC2(CCCN(c3ccncc3)C2)CC1,AC50,Cytochrome P450 3A4,31.6 µM (inconclusive)
Nc1nc(SC/C=C\c2ccccc2)c2nc[nH]c2n1,AC50,Cytochrome P450 2D6,3.16 µM (inconclusive)
same,AC50,Cytochrome P450 2C9,3.98 µM (inconclusive)
COc1ccc(NC(=O)CSc2nc(N)c3cc4c(nc3n2)CCCC4)cc1,EC50,[1],53.3 µM (active)
O=C(Nc1cccc2ccccc12)C12CC3CC(C1)CC(n1cnc([N+](=O)[O-])n1)(C3)C2,EC50,[2],12.9 µM (active)
same,EC50,[3],12.4 µM (active)
same,EC50,[4],> 60 µM (not active)
C=CCn1c(C)nnc1SCC(=O)Nc1nc(C)c(C(=O)N(C)C)s1,EC50,[6],> 195 µM (not active)
ON=C1c2ccccc2-c2ccccc21,EC50,[1],> 260 µM (inactive)
O=S(=O)(Nc1cccc(-n2cnnn2)c1)c1cc(Cl)ccc1Cl,EC50,[6],> 195 µM (not active)
Cc1cc(N2CCN(C)CC2)ccc1NC(=O)c1cccc(S(=O)(=O)N2CCc3ccccc3C2)c1,EC50,[2],9.2 µM (active)
same,EC50,[3],> 120 µM (not active)
same,EC50,[4],> 120 µM (not active)
same,EC50,[8],1.43 µM (active)
same,EC50,[9],8.5 µM (active)
O=C(CSc1nnc(-c2ccccc2)c(-c2ccccc2)n1)N1CCc2ccccc21,EC50,[1],> 260 µM (inactive)
CO[C@H]1COC(=O)[C@H](C)COC(=O)[C@@H](Cc2ccccc2)NC(=O)C/C=C\[C@H]1C,AC50,Cytochrome P450 3A4,6.31 µM (inconclusive)
CSc1ccccc1C(=O)N1CCN(c2ncccn2)CC1,EC50,[6],> 195 µM (not active)
O=C(O)CCC1(C(=O)O)OCCc2ccccc21 (stereo unspecified),EC50,[6],> 195 µM (not active)
Cc1nccn1Cc1cccc2ccccc12,EC50,[6],> 195 µM (not active)
O=S(=O)(c1ccccc1)N1CCCC(c2nc(O)c3nnn(Cc4ccc5c(c4)OCCO5)c3n2)C1 (stereo unspecified),CC50,[5],16.9 µM (active)
CCCCCSc1nc2c(c(=O)[nH]c(=O)n2C)n1C(C)C,EC50,[2],> 120 µM (not active)
same,EC50,[3],16.5 µM (active)
same,EC50,[4],12.5 µM (active)
Fc1cc(F)cc(-c2oncc2-c2nnnn2-c2ccccc2)c1,EC50,[6],> 195 µM (not active)
COc1ccc(CNC(=O)COc2cc3c(c4oc(=O)cc(C)c24)CCC(C)(C)O3)cc1OC,CC50,[5],> 50 µM (active)
CCCC[C@@H]1C[C@H]1C(NC(=O)c1cccnc1)c1ccc(Cl)cc1 (stereo partly specified),AC50,Cytochrome P450 2D6,25.1 µM (inconclusive)
Cc1cccc(OC2CCN(Cc3nc(CC4CC4)no3)CC2)c1,EC50,[2],> 120 µM (not active)
same,EC50,[3],> 120 µM (not active)
same,EC50,[4],55.7 µM (active)
COc1ccc(-c2nc3cnc(N(C)C)nc3n(Cc3cccs3)c2=O)cc1,AC50,Cytochrome P450 3A4,12.6 µM (inconclusive)
CC(C)c1nc2oc3c(NCc4ccccn4)ncnc3c2c2c1COC(C)(C)C2,EC50,[2],33 µM (active)
same,EC50,[3],> 120 µM (not active)
same,EC50,[4],16.7 µM (active)
COc1ccc(C2C(C#N)=C(N)N(c3ccccc3)C3=C2C(=O)CCC3)cc1Cn1cc([N+](=O)[O-])cn1 (stereo unspecified),EC50,[2],13.2 µM (active)
same,EC50,[3],17.1 µM (active)
same,EC50,[4],105 µM (active)
COC(=O)C(c1ccccc1)C1(O)CC(C)N(C)CC1C (stereo unspecified),EC50,[6],> 195 µM (not active)
CC[C@@H](C)[C@H](NC(=O)Cc1c(C)c2cc3c(C)c(C)oc3c(C)c2oc1=O)C(=O)O,EC50,[6],> 195 µM (not active)
CC(C)N(Cc1ccccc1)C(=O)COC(=O)/C=C/c1cnc2ccccc2n1,EC50,[1],23 µM (active)
c1ccc2c(c1)nnn1c3ccccc3nc21,EC50,[1],> 260 µM (inactive)
CN1CCN(c2ccc([N+](=O)[O-])cc2NC(=O)c2ccccc2Cl)CC1,AC50,Cytochrome P450 2D6,17.8 µM (inconclusive)
Cc1cc(=O)oc2c(C)c(OC(C)C(=O)NCC(O)c3ccccc3)ccc12 (stereo unspecified),EC50,[1],> 260 µM (inactive)
O=C(CN1C(=O)/C(=C\c2cccc(Cl)c2)Sc2ccccc21)NCCCN1CCOCC1,EC50,[1],245 µM (active)
CCN(CC)S(=O)(=O)c1ccc(C(=O)NN(C)C2=NS(=O)(=O)c3ccccc32)cc1,EC50,[1],> 260 µM (inactive)
CCC(CO)NCC#Cc1ccccc1 (stereo unspecified),EC50,[1],> 260 µM (inactive)
CCOc1cc(/C=N/NC(=O)c2cc(-c3ccccc3)nc3ccccc23)ccc1O,CC50,[5],31.8 µM (active)
C/C(=N\NC(=O)c1nnn(-c2nonc2N)c1C(C)C)c1cc(C)sc1C,CC50,[5],> 50 µM (active)
NC[C@@H]1O[C@H](C23CC4CC(CC(C4)C2)C3)Cc2c1ccc(O)c2O,AC50,Cytochrome P450 3A4,20 µM (inconclusive) and 31.6 µM (inconclusive)
Cc1cccc(N/N=C(\C=O)C(=O)c2ccc(Br)cc2)c1,EC50,[1],> 260 µM (inactive)
c1ccc2oc(C3=NCCN3)cc2c1,AC50,Cytochrome P450 2D6,39.8 µM (inconclusive)
